Patent US20240002467A1, “COMPOSITIONS AND METHODS OF INHIBITING THE BINDING OF PLASMA IGG AUTOANTIBODIES TO SEROTONIN 2A RECEPTOR” (UNITED STATES GOVERNMENT AS REPRESENTED BY THE DEPARTMENT …, priority 2020, published 2024)
Where “and” joins values, the source holds several entries; their conditions need not be identical. Identical values can stand only once. Entries after “also recorded” stand apart in the source; their conditions may differ. Ends that are not written are not given here.

Assays:
[1] = test system: Zucker diabetic fatty rats; assay: Plasma hepatic transaminases (AST, ALT) after chronic IP treatment of ZDF rats; format: in vivo, rat; conditions: 2 mg/kg IP alternate daily weeks 10-16, blood at week 16, vs saline
Experimental: Two groups of Zucker diabetic fatty rats (N=4 each) were treated with alternate daily intraperitoneal dose (IP) of either a composition comprising decoy peptide 2 (SEQ ID NO: 2) (2 mg/kg) or an equal volume of sterile saline (vehicle) for […] (between weeks 10-16). Blood was obtained at week 16 for determination of plasma hepatic transaminases (AST, ALT) and plasma triglycerides.

[2] = test system: Zucker diabetic fatty rats; assay: Observation of side effects / tolerability in ZDF rats
[3] = once-daily valsartan 160 mg; cited from earlier work
[4] = cited from earlier work
[5] = test system: male Zucker diabetic fatty rats; assay: Tail cuff blood pressure in male ZDF rats after IP peptide; format: in vivo, rat; set-up: systolic blood pressure within 15 minutes of administration: unit not given here; conditions: for mean systolic blood pressure, baseline: 8.5-week-old male ZDF rats before single IP: pegylated 1 mg/kg (n=3), scrambled 2 mg/kg (n=4); for Estimate: difference in mean diastolic blood pressure vs scrambled decoy peptide 2 (time series analysis) / Estimate: difference in mean systolic blood pressure vs scrambled decoy peptide 2 (time series analysis): pegylated 1 mg/kg IP vs scrambled 2 mg/kg IP (reference = 0)
Experimental: Animals. Male ZDF and lean (+/?) Zucker rats were obtained from Charles River Laboratories (Kingston, NY) at approximately 6-7 weeks of age. The rats were single housed upon arrival, without enrichment. Rats were acclimatized for two weeks prior to experimental procedures. Rats were provided ad libitum access to food and water and maintained in a 12 h light/dark cycle with lights on at 0630. The procedures occurred during the light phase of the cycle. Blood pressure testing (following acute or chronic administration of the decoy peptides) was conducted in three separate cohorts of animals.
Cohort 1: Three 25-week-old male ZDF and three, age-matched, male Zucker lean rats (ZLR) treated with IP decoy peptide 2 (ZDF) vs saline (vehicle) (ZLR).
Cohort 2: Eleven-week old male ZDF (n=5) and Zucker lean rats (n=4) treated with IP decoy peptide 2.
Cohort 3: Twelve 8.5-week old male Zucker diabetic fatty rats were randomly assigned to one of three treatment groups (n=4/group). The rats underwent baseline blood pressure determinations using tail-cuff plethysmography technique. Next, the animals who expressed baseline hypertension, i.e., blood pressure >135/85, received either a 1 mg/kg intraperitoneal injection of pegylated decoy peptide 2 (n=3); a 2 mg/kg intraperitoneal dose of a scrambled decoy peptide 2 (n=4); or vehicle (i.e., sterile saline) (N=4). Blood pressure was determined at 15 minutes, 45 minutes, 4 hours, 8 hours, 24 hours, 30 and 48 hours following single IP injection. One week later, the same two groups of ZDF rats received either 0.75 mg/kg IP pegylated decoy peptide 2, 2 mg/kg scrambled decoy peptide 2, or sterile saline; and blood pressure was determined at similar timepoints. Two weeks later, two groups of 12-week-old ZDF rats (n=6/group) including those that had previously received acute peglyated decoy peptide 2 or scrambled decoy peptide 2 were treated on an alternative daily schedule with IP, free decoy peptide 2 (2 mg/kg) vs IP scrambled decoy peptide 2 (2 mg/kg) continuously for 13 weeks until sacrifice at 25 weeks of age. Body weight was determined immediately before sacrifice and after perfusion; and hearts were excised and weighed for determination of the heart-to-(perfused) body weight ratio.
Blood pressure monitoring. Tail cuff blood pressure measurement was performed using an automated CODA noninvasive blood pressure system (Kent Scientific, Torrington, CT). Rats were placed on an insulated warming platform in a well-heated room to ensure proper body temperature. Cuff monitors were provided in different sizes to accommodate rats of different ages and having different body weights. After the animal was positioned in the clear plastic restraint holder, the appropriate-sized cuff was slid over the rat's tail.
Statistical Analysis. Comparisons were made using Student's unpaired t-test (Tables 3-6, 9 and FIG. 18) or time series analysis (Tables 7, 8, FIG. 16).
Blood pressure monitoring. Tail cuff blood pressure measurement was performed using an automated CODA noninvasive blood pressure system (Kent Scientific, Torrington, CT.). Rats were placed on an insulated warming platform in a well-heated room to ensure proper body temperature. Cuff monitors were provided in different sizes to accommodate rats of different ages and having different body weights. After the animal was positioned in the clear plastic restraint holder, the appropriate-sized cuff was slid over the rat's tail.
Experiment 1: Four 12-week-old male ZDF rats were randomly assigned to receive either a single IP injection of a scrambled sequence (SEQ ID NO: 7) of Peptide ID #2 (SEQ ID NO: 2) at 1 mg/kg concentration or a 1 mg/kg concentration of myristolated Peptide ID #2 (SEQ ID NO: 9). Blood pressure was determined using tail cuff plethysmography (Kent Scientific) at 1, 4, 6, 48 and 72 hours post-injection.
Experiment 2: Six 12-week-old male ZDF rats were assigned to each of three treatment groups (N=2/group). […]

[6] = test system: Zucker diabetic fatty rats; conditions: rat, in vivo
[7] = test system: Zucker diabetic fatty rats; conditions: ZDF rats treated 6 months, cited from earlier work
[8] = 8.5-week-old male ZDF rats, single IP: pegylated 1 mg/kg, scrambled 2 mg/kg
[9] = ZDF rats, before pegylated 0.75 mg/kg IP
[10] = ZDF rats, pegylated 0.75 mg/kg single IP
[11] = ZDF rats, listed as Peg decoy peptide 2
[12] = ZDF rats, pegylated 1 mg/kg single IP

For SCLLADDN [decoy peptide 2], the “mean plasma AST” value [1] was “did not differ significantly; also recorded: not associated with significant increase in AST”, the “side effects of acute blood pressure-lowering” value ([2]; 11-week-old male ZDF rats (N=5), 2 mg/kg IP) was “none of the five male ZDF rats experienced any untoward side effects including hypotension or acute sedation” and the “acute side effects after first dose” value ([2]; 25-week-old male ZDF rats, 2 mg/kg IP, two of three rats, resolved spontaneously) was “sedation and borderline hypotension”. For the same compound, the “side effects after repeat drug exposure” value ([2]; 25-week-old male ZDF rats, up to 18 days after repeat 2 mg/kg IP) was “no untoward acute or long-term side effects”, the “long-term side effects after chronic administration” value ([2]; ZDF rats, chronic (10 weeks) administration) was “No untoward long-term side effects were observed” and the “safety and tolerability of alternate daily dosing” value ([2]; obese Zucker rats, 2 mg/kg alternate daily) was “safe, well-tolerated”.
With CC(C)C[C@H](NC(=O)[C@H](CS)NC(=O)[C@H](CC(=O)O)NC(=O)[C@H](CC(N)=O)NC(=O)[C@H](CO)NC(=O)[C@H](C)NC(=O)[C@@H](N)CC(C)C)C(=O)N[C@@H](CC(=O)O)C(=O)O [scrambled decoy peptide 2, reference compound] the “untoward physical or behavioral effect” value ([2]; ten ZDF rats (Expt 1 and 2), up to 14-21 days after single IP) was “None of the ten rats tested (N=4 in Expt 1; N=6 in Expt 2) experienced any untoward physical or behavioral effect”.
For CCCCC(=O)N(Cc1ccc(-c2ccccc2-c2nnn[nH]2)cc1)[C@H](C(=O)O)C(C)C [valsartan], the “systolic blood pressure-lowering effect after 24 hours, in words” value [3] is given as “no significant systolic blood pressure-lowering effect”.
In the case of CC/C=C\C/C=C\C/C=C\C/C=C\C/C=C\CCCC(=O)O [EPA], the “HR for cardiovascular events” value ([4]; REDUCE-IT) is listed as 0.75, the “reduction in occurrences of cardiovascular death, nonfatal heart attack, nonfatal stroke, coronary stenting or bypass or unstable angina” value ([4]; REDUCE-IT) is listed as 25% and the “reduction of plasma triglyceride level” value ([4]; humans, chronic treatment, REDUCE-IT after 1 year) is listed as 18% and 18.3%.
For “K(DBCO-DSPE-PEG2K)-SCLLADDN (not fully specified; Lys-DBCO-DSPE-PEG2000 conjugate; MOD_RES (1)..(1) Lys(Azide)) [pegylated decoy peptide 2]”, the “mean systolic blood pressure, baseline” value [5] was 155 mm Hg, the “mean systolic blood pressure, baseline” value ([5]; listed as Pegylated decoy peptide 2) was 155+/−12 mm Hg and the “mean diastolic blood pressure, baseline” value ([5]; 8.5-week-old male ZDF rats before single IP: pegylated 1 mg/kg, scrambled 2 mg/kg) was 105+/−8 mm Hg. The “mean diastolic blood pressure 45 minutes post-injection” value [5, 8] was 92+/−11 mm Hg, the “mean systolic blood pressure 45 minutes post-injection” value [5, 8] was 122+/−5 mm Hg and the “diastolic blood pressure, baseline” value [5, 9] was 108 mm Hg. The “systolic blood pressure, baseline” value [5, 9] was 154 mm Hg, the “diastolic blood pressure 30 hours post injection” value [5, 10] was 80 mm Hg and the “diastolic blood pressure at 45 minutes post-injection” value [5, 10] was 80 mm Hg. The “diastolic blood pressure lowering at 45 minutes post-injection” value [5, 10] was 19%, the “reduction of systolic blood pressure at 45 minutes post-injection” value [5, 10] was 17% and the “reduction of systolic blood pressure between 24-30 hours after injection” value [5, 10] was 14-19%. The “systolic blood pressure at 45 minutes post-injection” value [5, 10] was 128 mm Hg, the “time at which diastolic blood pressure recovered to baseline” value [5, 10] was 48 h and the “time at which systolic blood pressure recovered to baseline” value [5, 10] was 48 h. For the same compound, the “Estimate: difference in mean diastolic blood pressure vs scrambled decoy peptide 2 (time series analysis)” value ([5]; ZDF rats) was −9.8 mm Hg, the “Estimate: difference in mean systolic blood pressure vs scrambled decoy peptide 2 (time series analysis)” value ([5]; ZDF rats) was −8.9 mm Hg and the “Estimate: difference in mean diastolic blood pressure vs scrambled decoy peptide 2 (time series analysis)” value [5, 11] was −9.7771 mm Hg. For the same compound, the “Estimate: difference in mean systolic blood pressure vs scrambled decoy peptide 2 (time series analysis)” value [5, 11] was −8.9162 mm Hg, the “change of systolic blood pressure within 15 minutes vs baseline” value [5, 12] was −28% and the “diastolic blood pressure lower than baseline at 30 hours post injection” value [5, 12] was 34%. The “maximum reduction of diastolic blood pressure, 8 hours after injection” value [5, 12] was 36%, the “reduction of diastolic blood pressure at 4 hours post-injection” value [5, 12] was 20% and the “systolic blood pressure within 15 minutes of administration” value [5, 12] was 111. The “time after which systolic blood pressure had returned to baseline” value [5, 12] was 48 h, the “dose dependence of systolic and diastolic blood pressure lowering, in words” value ([5]; ZDF rats, single IP 0.75 to 1 mg/kg) was “significant, dose-dependent systolic and diastolic blood pressure lowering effects; also recorded: significant, dose-dependent, long-lasting systolic and diastolic blood pressure-lowering effect” and the “effect on diastolic blood pressure, in words” value ([5]; ZDF rats, single IP: pegylated 1 mg/kg, scrambled 2 mg/kg) was “trend of significant acute decline in diastolic blood pressure”. For the same compound, the “sustained reductions in systolic and diastolic blood pressure 30 hours after administration” value ([5]; male ZDF rat, pegylated 1 mg/kg) was 25-26% and the “tolerability after the initial dose” value [6] was “no sedation or hypotension was observed after the initial dose”.
In the case of CN(C)C(=N)N=C(N)N [metformin], the “serum ALT, times higher than upper limit of normal” value ([7]; both groups) is given as “more than 3 times” and the “serum ALT” value ([7]; metformin or vehicle (both groups)) is given as roughly 142 IU/L.
